19 compounds from PubChem BioAssay (NCI) can be followed below.

Test systems include A498 renal; DU-145 prostate; HL-60(TB) leukemia; HOP-62 NSCLC; HOP-92 NSCLC; HS 578T breast; MDA-MB-231 breast; OVCAR-5 ovarian; OVCAR-8 ovarian; SK-MEL-28 melanoma.
Common to all, as to assay: growth of human tumour cells (NCI), 48 h

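Five concentrations, 48 hours, 96-well plates. Here, GI50 denotes the concentration required for 50% inhibition of growth. TGI is the concentration that stops growth completely.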

With `CCOC(=O)Cn1nnc2cc(Nc3c(C)[n+]([O-])c4cc(F)c(OCC)cc4[n+]3[O-])ccc21`, the TGI was above 100 µM in the assay on A498 renal; above 100 µM with DU-145 prostate; above 100 µM with HL-60(TB) leukemia; 89.5 µM in the assay on HOP-62 NSCLC; 49.5 µM in the assay on HOP-92 NSCLC; above 100 µM in the assay on HS 578T breast. Besides, the TGI in the assay with MDA-MB-231 breast, in the assay on OVCAR-5 ovarian, with OVCAR-8 ovarian and in the assay on SK-MEL-28 melanoma was above 100 µM in each case.
On to `O=C1CS/C(=N/N=C/c2cn(Cc3ccc(Cl)cc3Cl)c3ccccc23)N1`, for which the TGI is 46.5 µM in the assay with A498 renal; above 100 µM with DU-145 prostate; above 100 µM with HL-60(TB) leukemia; above 100 µM with HOP-62 NSCLC; above 100 µM with HOP-92 NSCLC; 83.6 µM in the assay on HS 578T breast. Further, the TGI was 48 µM in the assay with MDA-MB-231 breast, above 100 µM in the assay with OVCAR-5 ovarian, 30.6 µM in the assay with OVCAR-8 ovarian and above 100 µM in the assay on SK-MEL-28 melanoma.
As to `Cc1nnc2n1-c1ccccc1N(Cc1ccccc1)CC2`, the TGI in the assay with A498 renal was above 100 µM; in the assay with DU-145 prostate it was above 100 µM; with HL-60(TB) leukemia, 60 µM; in the assay with HOP-62 NSCLC it was above 100 µM; with HOP-92 NSCLC, 51.9 µM; in the assay with HS 578T breast, above 100 µM. The TGI in the assay on MDA-MB-231 breast, in the assay on OVCAR-5 ovarian, with OVCAR-8 ovarian and with SK-MEL-28 melanoma was above 100 µM each time.
Take `O=C1CC(c2ccccc2Cl)C2(C(=O)NC(=O)NC2=O)C(c2ccccc2Cl)C1` (configuration not stated): the TGI in the assay on A498 renal, in the assay with DU-145 prostate, with HL-60(TB) leukemia, with HOP-62 NSCLC, in the assay on HOP-92 NSCLC and in the assay on HS 578T breast was above 100 µM throughout. The TGI in the assay with MDA-MB-231 breast, in the assay with OVCAR-5 ovarian, in the assay with OVCAR-8 ovarian and in the assay on SK-MEL-28 melanoma was above 100 µM each time.
For `Clc1ccc(OCc2nnc(COc3ccc(OCc4nnc(COc5ccc(Cl)cc5Cl)o4)c(Cl)c3)o2)c(Cl)c1`, the TGI was above 100 µM in the assay with A498 renal; above 100 µM in the assay with DU-145 prostate; 57.3 µM in the assay with HL-60(TB) leukemia; above 100 µM in the assay on HOP-62 NSCLC; 33.5 µM in the assay with HOP-92 NSCLC; above 100 µM in the assay on HS 578T breast. The TGI in the assay with MDA-MB-231 breast is 63.1 µM; in the assay with OVCAR-5 ovarian it was above 100 µM; with OVCAR-8 ovarian, above 100 µM; in the assay on SK-MEL-28 melanoma, above 100 µM.
For the compound `C=C1C[C@@H]2CC[C@@]34C[C@H]5O[C@H]6[C@@H](O3)[C@H]3O[C@H](CC[C@@H]3O[C@H]6[C@H]5O4)CC(=O)C[C@@H]3[C@@H](OC)[C@@H](C[C@H](O)CN)O[C@H]3C[C@H]3O[C@@H](CC[C@@H]1O2)C[C@@H](C)C3=C`, the TGI is 0.245 µM in the assay on A498 renal; 0.0241 µM in the assay with DU-145 prostate; 0.00466 µM in the assay on HL-60(TB) leukemia; above 1 µM in the assay with HOP-62 NSCLC; above 1 µM with HOP-92 NSCLC; above 0.187 µM in the assay on HS 578T breast. The TGI was 0.087 µM in the assay on MDA-MB-231 breast, above 1 µM in the assay with OVCAR-5 ovarian, 0.167 µM with OVCAR-8 ovarian and above 1 µM in the assay on SK-MEL-28 melanoma. Further, the values for the GI50 in the assay with HL-60(TB) leukemia and in the assay on OVCAR-5 ovarian were 0.000307 µM and 0.00251 µM, respectively.
`CCN(CCCCCCCCCCN1CC(=O)N(CCCCCCCCCCN(CC)Cc2ccccc2OC)CC1=O)Cc1ccccc1OC`: the GI50 was 1.09 µM in the assay on A498 renal; 1.39 µM in the assay with DU-145 prostate; 1.02 µM with HL-60(TB) leukemia; 1.56 µM in the assay with HOP-62 NSCLC; 0.359 µM in the assay on HOP-92 NSCLC; 1.35 µM in the assay with HS 578T breast. Besides, the GI50 with MDA-MB-231 breast was 1.56 µM; in the assay with OVCAR-5 ovarian, 3.36 µM; in the assay on OVCAR-8 ovarian, 1.47 µM; in the assay on SK-MEL-28 melanoma, 1.75 µM. Further, the TGI came to 2.94 µM in the assay on A498 renal; 2.78 µM in the assay with DU-145 prostate; 3.6 µM in the assay on HL-60(TB) leukemia; 3.05 µM with HOP-62 NSCLC; 2.34 µM in the assay with HOP-92 NSCLC; 4.26 µM in the assay on HS 578T breast. Further, the TGI in the assay with MDA-MB-231 breast came out at 3.61 µM; with OVCAR-5 ovarian, 15.1 µM; in the assay with OVCAR-8 ovarian it was 3.29 µM; in the assay with SK-MEL-28 melanoma it was 3.22 µM.
Turning to `Nc1nncc2[nH]cnc12`, the TGI is above 100 µM in the assay on A498 renal; above 100 µM in the assay with DU-145 prostate; 42.9 µM in the assay with HL-60(TB) leukemia; above 100 µM in the assay with HOP-62 NSCLC; above 100 µM in the assay with HOP-92 NSCLC; above 100 µM in the assay with HS 578T breast. Moreover, the TGI in the assay on MDA-MB-231 breast was above 100 µM; with OVCAR-5 ovarian, above 100 µM; in the assay on OVCAR-8 ovarian, above 79.8 µM; with SK-MEL-28 melanoma, above 100 µM.
As to `Cn1nc2c(c1N)Cc1c(nn(C)c1N)-c1ccccc1-2`, the TGI in the assay on A498 renal, with DU-145 prostate, in the assay on HL-60(TB) leukemia, in the assay on HOP-62 NSCLC, in the assay with HOP-92 NSCLC and with HS 578T breast was above 100 µM in each case. Besides, the TGI in the assay with MDA-MB-231 breast, in the assay on OVCAR-5 ovarian, in the assay with OVCAR-8 ovarian and in the assay on SK-MEL-28 melanoma was above 100 µM in each case.
Take `COc1cccc(N2C(=O)CS(=O)(=O)C2c2cccc(Oc3ccccc3)c2)c1` (configuration not stated): the TGI with A498 renal is 36.7 µM; in the assay with DU-145 prostate, above 100 µM; in the assay with HL-60(TB) leukemia, above 100 µM; in the assay with HOP-62 NSCLC, above 100 µM; in the assay with HOP-92 NSCLC, 68.5 µM; in the assay on HS 578T breast, 70 µM. In addition, the TGI is above 100 µM in the assay with MDA-MB-231 breast, above 100 µM in the assay on OVCAR-5 ovarian, 77.2 µM with OVCAR-8 ovarian and above 100 µM with SK-MEL-28 melanoma.
As to `Cn1c2c(c3ccccc31)CCN1C(=O)C34CCCC3CC21S4` (configuration not stated), the TGI in the assay with A498 renal, in the assay on DU-145 prostate, in the assay with HL-60(TB) leukemia, in the assay on HOP-62 NSCLC, with HOP-92 NSCLC and with HS 578T breast was above 100 µM throughout. For the same compound, the TGI in the assay on MDA-MB-231 breast, with OVCAR-5 ovarian, with OVCAR-8 ovarian and in the assay on SK-MEL-28 melanoma was above 100 µM each time.
As for `C[N+]1(CCN=C=NC2CCCCC2)CCOCC1`, the TGI with A498 renal, with DU-145 prostate, with HL-60(TB) leukemia, in the assay on HOP-62 NSCLC, in the assay with HOP-92 NSCLC and in the assay with HS 578T breast was above 100 µM throughout. For the same compound, the TGI in the assay on MDA-MB-231 breast, in the assay with OVCAR-5 ovarian, in the assay with OVCAR-8 ovarian and in the assay with SK-MEL-28 melanoma was above 100 µM in each case.
With `CC1(C)N=C(N)N=C(N)N1c1cccc(OCc2cccc(N)c2)c1`, the TGI with A498 renal was above 100 µM; in the assay on DU-145 prostate, above 100 µM; in the assay on HL-60(TB) leukemia it was 47.5 µM; with HOP-62 NSCLC, above 100 µM; in the assay with HOP-92 NSCLC, above 100 µM; in the assay on HS 578T breast it was above 100 µM. In addition, the TGI in the assay on MDA-MB-231 breast, in the assay with OVCAR-5 ovarian, in the assay with OVCAR-8 ovarian and in the assay on SK-MEL-28 melanoma was above 100 µM throughout.
As for `COc1cc2[nH]c(=O)c3cc(-c4ccccc4)cc4c(Cl)nc(c1OC)c2c43`, the TGI in the assay with A498 renal was above 100 µM; with DU-145 prostate it was above 100 µM; with HL-60(TB) leukemia, 12.3 µM; with HOP-62 NSCLC, above 72.7 µM; with HOP-92 NSCLC, above 79.3 µM; in the assay on HS 578T breast, above 100 µM. Besides, the TGI is above 100 µM in the assay on MDA-MB-231 breast, above 100 µM in the assay on OVCAR-5 ovarian, 98.4 µM with OVCAR-8 ovarian and above 100 µM in the assay with SK-MEL-28 melanoma.
`CC(C)=CCC12Cc3ccc(O)cc3C(C(C)CN1)C2C` (configuration not stated): the TGI in the assay with A498 renal, in the assay on DU-145 prostate, in the assay with HL-60(TB) leukemia, with HOP-62 NSCLC, in the assay on HOP-92 NSCLC and in the assay on HS 578T breast was above 100 µM in each case. Also, the TGI in the assay on MDA-MB-231 breast, in the assay on OVCAR-5 ovarian, with OVCAR-8 ovarian and with SK-MEL-28 melanoma was above 100 µM throughout.
For the compound `O=C(OC12CC3CC(CC(C3)C1)C2)c1ccc(NCc2cc(O)ccc2O)cc1`, the TGI in the assay with A498 renal was found to be 4.98 µM; in the assay with DU-145 prostate it was 16.7 µM; in the assay on HL-60(TB) leukemia, 0.627 µM; in the assay on HOP-62 NSCLC, 14.8 µM; in the assay with HOP-92 NSCLC it was 2.07 µM; with HS 578T breast, 4.41 µM. Besides, the TGI was 5.87 µM in the assay with MDA-MB-231 breast, 4.59 µM in the assay on OVCAR-5 ovarian, 4.11 µM in the assay with OVCAR-8 ovarian and 1.62 µM in the assay with SK-MEL-28 melanoma.
On to `O=C1c2cccnc2S(=O)(=O)N1c1ccc([N+](=O)[O-])cc1`, for which the TGI in the assay on A498 renal, with DU-145 prostate, in the assay with HL-60(TB) leukemia, in the assay with HOP-62 NSCLC, in the assay with HOP-92 NSCLC and with HS 578T breast was above 100 µM each time. Further, the TGI in the assay with MDA-MB-231 breast, in the assay on OVCAR-5 ovarian, in the assay on OVCAR-8 ovarian and in the assay on SK-MEL-28 melanoma was above 100 µM each time.
On to `Cc1cn(CCCCCOC(=O)NC(CCCNC(N)=O)C(=O)O)c(=O)[nH]c1=O` (configuration not stated), for which the TGI in the assay with A498 renal, in the assay on DU-145 prostate, in the assay with HL-60(TB) leukemia, in the assay on HOP-62 NSCLC, in the assay on HOP-92 NSCLC and in the assay with HS 578T breast was above 100 µM in each case. Further, the TGI with MDA-MB-231 breast, in the assay on OVCAR-5 ovarian, in the assay with OVCAR-8 ovarian and with SK-MEL-28 melanoma was above 100 µM throughout.
Take `CC1(C)OC[C@@H](C[C@H](O)COCc2ccccc2)O1`: the TGI in the assay with A498 renal, in the assay on DU-145 prostate, in the assay on HL-60(TB) leukemia, with HOP-62 NSCLC, in the assay on HOP-92 NSCLC and in the assay with HS 578T breast was above 100 µM in each case. In addition, the TGI in the assay with MDA-MB-231 breast, in the assay with OVCAR-5 ovarian, in the assay with OVCAR-8 ovarian and in the assay on SK-MEL-28 melanoma was above 100 µM throughout.
